Results: ChEMBL document CHEMBL4390709, “Design, synthesis and biological evaluation of benzimidazole derivatives as novel human Pin1 inhibitors” (Bioorg Med Chem Lett, 2019)

Assays:
[1] = target: Peptidyl-prolyl cis-trans isomerase NIMA-interacting 1 (Homo sapiens, UniProt Q13526); assay: Inhibition of recombinant human Pin1 (Met1 to Glu163 residues) expressed in Escherichia coli using Suc-Ala-Glu-cis-Pro-Phe-4-nitroanilide as substrate preincubated for 30 mins followed by substrate addition and measured for 90 secs by protease-coupled assay
Chain of Peptidyl-prolyl cis-trans isomerase NIMA-interacting 1 (Q13526 whole entry): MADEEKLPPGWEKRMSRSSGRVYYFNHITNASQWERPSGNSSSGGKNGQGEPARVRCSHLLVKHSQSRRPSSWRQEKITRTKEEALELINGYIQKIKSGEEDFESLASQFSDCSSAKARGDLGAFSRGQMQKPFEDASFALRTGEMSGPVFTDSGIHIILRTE

[2] = tested on: PC-3; assay: Cell cycle arrest in human PC3 cells assessed as accumulation at subG1-phase at 2.5 uM measured after 24 hrs by propidium iodide staining based flow cytometry (reference value: 0.65%); format: functional
[3] = tested on: PC-3; assay: Cell cycle arrest in human PC3 cells assessed as increase in accumulation at G0/G1-phase measured after 24 hrs by propidium iodide staining based flow cytometry; format: functional
[4] = tested on: PC-3; assay: Cell cycle arrest in human PC3 cells assessed as accumulation at G0/G1-phase at 10 uM measured after 24 hrs by propidium iodide staining based flow cytometry (reference value: 54.26%); format: functional
[5] = tested on: PC-3; assay: Cell cycle arrest in human PC3 cells assessed as accumulation at G2/M-phase at 2.5 uM measured after 24 hrs by propidium iodide staining based flow cytometry (reference value: 28.31%); format: functional
[6] = tested on: PC-3; assay: Cell cycle arrest in human PC3 cells assessed as accumulation at subG1-phase at 5 uM measured after 24 hrs by propidium iodide staining based flow cytometry (reference value: 0.65%); format: functional
[7] = tested on: PC-3; assay: Cell cycle arrest in human PC3 cells assessed as accumulation at subG1-phase at 10 uM measured after 24 hrs by propidium iodide staining based flow cytometry (reference value: 0.65%); format: functional
[8] = tested on: PC-3; assay: Cell cycle arrest in human PC3 cells assessed as accumulation at G0/G1-phase at 5 uM measured after 24 hrs by propidium iodide staining based flow cytometry (reference value: 54.26%); format: functional
[9] = tested on: PC-3; assay: Antiproliferative activity against human PC3 cells measured after 96 hrs by MTT assay; format: functional; conditions: PC-3, 96 h
[10] = tested on: PC-3; assay: Cell cycle arrest in human PC3 cells assessed as accumulation at G0/G1-phase at 2.5 uM measured after 24 hrs by propidium iodide staining based flow cytometry (reference value: 54.26%); format: functional
[11] = tested on: PC-3; assay: Cell cycle arrest in human PC3 cells assessed as accumulation at G2/M-phase at 10 uM measured after 24 hrs by propidium iodide staining based flow cytometry (reference value: 28.31%); format: functional
[12] = tested on: PC-3; assay: Cell cycle arrest in human PC3 cells assessed as accumulation at G2/M-phase at 5 uM measured after 24 hrs by propidium iodide staining based flow cytometry (reference value: 28.31%); format: functional

| Compound | IC50 [1] [nM] | further results |
| --- | --- | --- |
| CC(C)(C)c1ccc(OC(=O)CCn2c(-c3ccc(C(=O)O)cc3)nc3ccccc32)cc1 | 13900 |  |
| Cc1cccc(NC(=O)CCn2c(CCC(=O)O)nc3ccccc32)c1 | 7560 |  |
| Cc1ccccc1NC(=O)CCn1c(CCC(=O)O)nc2ccccc21 | 9810 |  |
| O=C(CCn1c(-c2ccc(C(=O)O)cc2)nc2ccccc21)Nc1cccc(C(F)(F)F)c1 | 11300 |  |
| O=C(CCn1c(-c2ccc(C(=O)O)cc2)nc2ccccc21)Nc1cccc([N+](=O)[O-])c1 | 13600 |  |
| O=C(CCn1c(-c2ccc(C(=O)O)cc2)nc2ccccc21)Nc1cc(Cl)cc(Cl)c1 | 2890 |  |
| O=C(O)CCc1nc2ccccc2n1CCC(=O)Nc1ccccc1 | 19700 |  |
| O=C(O)c1ccc(-c2nc3ccccc3n2CCC(=O)N(Cc2ccccc2)Cc2ccccc2)cc1 | 5400 |  |
| O=C(NS(=O)(=O)C(F)(F)F)c1ccc(-c2nc3ccccc3n2CCCOc2cccc3ccccc23)cc1 | 2260 |  |
| Cc1ccccc1NC(=O)CCn1c(-c2ccc(C(=O)O)cc2)nc2ccccc21 | 7270 |  |
| COc1cccc(NC(=O)CCn2c(-c3ccc(C(=O)O)cc3)nc3ccccc32)c1 | 18700 |  |
| CS(=O)(=O)NC(=O)c1ccc(-c2nc3ccccc3n2CCCOc2cccc3ccccc23)cc1 | 7830 |  |
| COc1cc(NC(=O)CCn2c(-c3ccc(C(=O)O)cc3)nc3ccccc32)cc(OC)c1 | 3570 |  |

More lines, in order of falling IC50 [1], values ahead:

| IC50 [1] [nM] | Compound | further results |
| --- | --- | --- |
| 2200 | O=C(O)c1ccc(-c2nc3ccccc3n2CCCOc2ccc(Oc3ccccc3)cc2)cc1 |  |
| 1890 | CC(C)(C)c1ccc(OCCCn2c(-c3ccc(C(=O)O)cc3)nc3ccccc32)cc1 |  |
| 1870 | O=C(CCn1c(-c2ccc(C(=O)O)cc2)nc2ccccc21)Oc1cccc2ccccc12 |  |
| 1530 | O=C(O)c1ccc(-c2nc3ccccc3n2CCC(=O)N(c2ccccc2)c2ccc3ccccc3c2)cc1 |  |
| 1100 | Cc1cccc(NC(=O)CCn2c(-c3ccc(C(=O)O)cc3)nc3ccccc32)c1 |  |
| 1020 | O=C(CCn1c(-c2ccc(C(=O)O)cc2)nc2ccccc21)Oc1ccc(Oc2ccccc2)cc1 |  |
| 1000 | O=C(NS(=O)(=O)c1ccccc1)c1ccc(-c2nc3ccccc3n2CCCOc2cccc3ccccc23)cc1 | Activity [2]: 0.52%; Activity [3]: Dose-dependent effect; Activity [4]: 64.24%; Activity [5]: 29.01%; Activity [6]: 0.49%; Activity [7]: 0.37%; Activity [8]: 62.46%; GI50 [9]: 9 µM; Activity [10]: 58.33%; Activity [11]: 27.2%; Activity [12]: 27.86% |
| 720 | Cc1cc(OC(=O)CCn2c(-c3ccc(C(=O)O)cc3)nc3ccccc32)cc(C)c1Cl |  |
| 470 | Cc1cc(OCCCn2c(-c3ccc(C(=O)O)cc3)nc3ccccc32)cc(C)c1Cl |  |
| 330 | O=C(O)c1ccc(-c2nc3ccccc3n2CCCOc2cccc3ccccc23)cc1 |  |
